Assay results: patent publication US12421221B2 (ONCOBIX CO., LTD., priority 2019, dated 2025)

How the values were obtained:
[1] = biological target: T1, EGFR mutation Ba/F3 stable cell line DEL19/T790M/C797S (Homo sapiens, UniProt P00533, DEL746-750/T790M/C797S, cells depend on it); assay: Cancer cell growth inhibitory effect (MTT assay); assay type: cell-based, Murine; details: 72 hours, read-out: DEL19/T790M/C797S cell growth inhibition IC50
T1 construct: "del19, #32062; del19+T790M, #32072)
Procedure: (§1) With respect to the compounds obtained in Examples, a growth inhibitory effect of ALK mutation cancer cells and EGFR mutation Ba/F3 cancer cell lines was measured. The anti-cancer efficacy activity measurement was performed by the following method using an ALK mutation cell line such as H3122 (EML4-ALK v1), H2228 (EML4-ALK v3), etc. and an EGFR mutation Ba/F3 stable cell line.
Ba/F3 stable cell line construction: Murine lymphoid cells performed IL-3 dependent growth. […] A stable cell line was constructed using this principle even without puromycin selection. Briefly, each construction was infected on Ba/F3, and after 48 hours, IL-3 was removed by media exchange and cells were cultured. However, in the case of the wild type EGFR, puromycin selection was performed.
(§2) 2×10^5 cells were seeded on a 96-well plate. After 24 hours, each of the drugs was treated in a dose dependent manner, and incubated after 72 hours, a 15 μL MTT reagent reacted for 4 hours, and then 100 μL 10% SDS was added and incubated for 24 hours. […] MTT result analysis measured the IC50 values through prism software.

H3122 (EML4-ALK v1) = assay: Cancer cell growth inhibitory effect (MTT assay); assay type: cell-based; details: Homo sapiens, NCI-H3122, 72 hours, read-out: H3122 cell growth inhibition IC50
Procedure: as §1, §2

H2228 (EML4-ALK v3) = assay: Cancer cell growth inhibitory effect (MTT assay); assay type: cell-based; details: Homo sapiens, NCI-H2228, 72 hours, read-out: H2228 cell growth inhibition IC50
Procedure: as §1, §2

EGFR (del19/L858R/T790M) = EGFR (del19/L858R/T790M) (Homo sapiens, UniProt P00533, T790M, form not given); assay: Kinase inhibitory activity (33P-ATP filter-binding, scintillation counting); assay type: biochemical
Procedure: (§3) The measurement of the kinase inhibitory activity was performed in the following method.
(§4) 2. An evaluation compound (DMSO solution) and Mg/ATP were added to perform the reaction.
(§5) 3. After about 40 minutes at room temperature, 10 μL of 0.5% phosphoric acid was added to complete the reaction.
(§6) 4. The reaction solution was divided by 0.5% 10 μL and spotted on a P30 filtermat.
(§7) 5. […] The reaction solution was washed once with methanol and then dried and analyzed with scintillation counting to measure IC50 values.

EGFR (del19/T790M/C797S) = EGFR (del19/T790M/C797S) (Homo sapiens, UniProt P00533, C797S/DEL746-750/T790M); assay: as above; assay type: biochemical
Procedure: as §3, §4, §5, §6, §7

ALK (L1196M) = ALK (L1196M) (Homo sapiens, UniProt Q9UM73, L1196M); assay: as above; assay type: biochemical
Procedure: as §3, §4, §5, §6, §7

Row | Structure (SMILES) | IC50 [1] | IC50 (H3122 (EML4-ALK v1)) | IC50 (H2228 (EML4-ALK v3)) | IC50 (EGFR (del19/L858R/T790M)) | IC50 (EGFR (del19/T790M/C797S)) | IC50 (ALK (L1196M))
1 | COc1cc(N2CCOCC2)c(-c2cnn(C)c2)cc1Nc1ncc(Cl)c(Nc2ccccc2N(C)S(C)(=O)=O)n1 [Example 1, N-(2-((5-chloro-2-((2-methoxy-5-(1-methyl-1H-pyrazol-4-yl)-4-morpholinophenyl)amino)pyrimidine-4-yl)amino)phenyl)-N-methylmethanesulfonamide] | < 100 nM | 50 to 100 nM | < 100 nM | < 50 nM | < 50 nM | < 50 nM
2 | COc1cc(N2CCOCC2)c(-c2cnn(C)c2)cc1Nc1ncc(Cl)c(Nc2ccccc2NS(C)(=O)=O)n1 [Example 2, N-(2-((5-chloro-2-((2-methoxy-5-(1-methyl-1H-pyrazol-4-yl)-4-morpholinophenyl)amino)pyrimidine-4-yl)amino)phenyl)methanesulfonamide] | – | 50 to 100 nM | < 100 nM | – | – | < 50 nM
3 | COc1cc(N2CCSCC2)c(-c2cnn(C)c2)cc1Nc1ncc(Cl)c(Nc2ccccc2N(C)S(C)(=O)=O)n1 [Example 3] | < 100 nM | 50 to 100 nM | < 100 nM | < 50 nM | < 50 nM | < 50 nM
4 | COc1cc(N2CCN(C)CC2)c(-c2cnn(C)c2)cc1Nc1ncc(Cl)c(Nc2ccccc2N(C)S(C)(=O)=O)n1 [Example 4] | 50 to 100 nM | 50 to 100 nM | 50 to 100 nM | < 50 nM | 50 to 100 nM | < 50 nM
5 | COc1cc(N2CC3(COC3)C2)c(-c2cnn(C)c2)cc1Nc1ncc(Cl)c(Nc2ccccc2N(C)S(C)(=O)=O)n1 [Example 5, N-(2-((5-chloro-2-((2-methoxy-5-(1-methyl-1H-pyrazol-4-yl)-4-(2-oxa-6-azaspiro[3.3]heptane-6-yl)phenyl)amino)pyrimidine-4-yl)amino)phenyl)-N-methylmethanesulfonamide] | < 100 nM | 50 to 100 nM | < 100 nM | < 50 nM | < 50 nM | < 50 nM
6 | COc1cc(N2CC3(CN(C)C3)C2)c(-c2cnn(C)c2)cc1Nc1ncc(Cl)c(Nc2ccccc2N(C)S(C)(=O)=O)n1 [Example 6, N-(2-((5-chloro-2-((2-methoxy-5-(1-methyl-1H-pyrazol-4-yl)-4-(6-methyl-2,6-diazaspiro[3.3]heptane-2-yl)phenyl)amino)pyrimidine-4-yl)amino)phenyl)-N-methylmethanesulfonamide] | 50 to 100 nM | 50 to 100 nM | 50 to 100 nM | < 50 nM | 50 to 100 nM | < 50 nM

Further lines, results first:

Row | IC50 [1] | IC50 (H3122 (EML4-ALK v1)) | IC50 (H2228 (EML4-ALK v3)) | IC50 (EGFR (del19/L858R/T790M)) | IC50 (EGFR (del19/T790M/C797S)) | IC50 (ALK (L1196M)) | Structure (SMILES)
7 | < 100 nM | 50 to 100 nM | < 100 nM | < 50 nM | < 50 nM | < 50 nM | COc1cc(N2CCSCC2)c(-c2cnn(C)c2)cc1Nc1ncc(Cl)c(Nc2ccccc2NS(C)(=O)=O)n1 [Example 7, N-(2-((5-chloro-2-((2-methoxy-5-(1-methyl-1H-pyrazol-4-yl)-4-thiomorpholinophenyl)amino)pyrimidine-4-yl)amino)phenyl)methanesulfonamide]
8 | 50 to 100 nM | > 500 nM | > 500 nM | 50 to 100 nM | 50 to 100 nM | < 50 nM | COc1cc(N2CCN(C)CC2)c(-c2cnn(C)c2)cc1Nc1ncc(Cl)c(Nc2ccccc2NS(C)(=O)=O)n1 [Example 8, N-(2-((5-chloro-2-((2-methoxy-5-(1-methyl-1H-pyrazol-4-yl)-4-(4-methylpiperazine-1-yl)phenyl)amino)pyrimidine-4-yl)amino)phenyl)methanesulfonamide]
9 | < 100 nM | 50 to 100 nM | 50 to 100 nM | < 50 nM | < 50 nM | < 50 nM | COc1cc(N2CC3(COC3)C2)c(-c2cnn(C)c2)cc1Nc1ncc(Cl)c(Nc2ccccc2NS(C)(=O)=O)n1 [Example 9, N-(2-((5-chloro-2-((2-methoxy-5-(1-methyl-1H-pyrazol-4-yl)-4-(2-oxa-6-azaspiro[3.3]heptane-6-yl)phenyl)amino)pyrimidine-4-yl)amino)phenyl)methanesulfonamide]
10 | 50 to 100 nM | > 500 nM | > 500 nM | 50 to 100 nM | 50 to 100 nM | < 50 nM | COc1cc(N2CC3(CN(C)C3)C2)c(-c2cnn(C)c2)cc1Nc1ncc(Cl)c(Nc2ccccc2NS(C)(=O)=O)n1 [Example 10, N-(2-((5-chloro-2-((2-methoxy-5-(1-methyl-1H-pyrazol-4-yl)-4-(6-methyl-2,6-diazaspiro[3.3]heptane-2-yl)phenyl)amino)pyrimidine-4-yl)amino)phenyl)methanesulfonamide]
11 | – | > 500 nM | > 500 nM | – | – | 50 to 100 nM | C=CC(=O)Nc1cc(Nc2nccc(-c3cn(C)c4ccccc34)n2)c(OC)cc1N(C)CCN(C)C [Osimertinib, osimertinib, reference compound]
